According to US20240287054A1, “COMPOUNDS THAT BIND NON-CANONICAL G-QUADRUPLEX STRUCTURES AND METHODS OF MAKING AND USING THE SAME” (The U.S.A., as Represented by the Secretary, Department of …, priority 2021, published 2024):
Where two headings read alike, the source gives them in different places.

Tests used:
MYCN G4 DNA [1] = assay: Surface plasmon resonance (SPR) with immobilized biotinylated MYCN G4 DNA; format: binding, human; details: for positive binding in SPR (SNR>3): single concentration 100 μM compound
How it was run: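 Biotinylated MYCN G4 DNA, annealed at 95 °C, was captured on a streptavidin-coated CM5 chip; running buffer was 10 mM Tris pH 7.0, 100 mM KCl, 0.005% Tween 20, 5% DMSO. Compound series were injected at 25 μL/min (120 s association, 200 s dissociation), reference-subtracted, and KD was fitted with a Langmuir 1:1 model.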

MYCN G4 DNA [2] = assay: Circular dichroism (CD) thermal melting assay of MYCN G4; format: binding, human; details: for increase of Tm (ΔTm) of MYCN G4: 20 μM compound, 10 mM Tris pH 7.0, 5 mM KCl
Method: For thermal melt assay, MYCN oligonucleotides were prepared in a low KCl buffer (10 mM Tris, pH7.0, 5 mM KCl) at 5 μM concentration. To test the stabilization effect, G4 samples were incubated with and without 20 μM compound (final solution containing 5% DMSO). Then a total of 300 μL solution was added in a cuvette and heated from 20° C. to 95° C. in a CD spectrometer with an interval of 1° C. To calculate the melting temperature (Tm), the peak of CD spectrum at 263 nm was tracked, and […] vs temperature was plotted and fitted using a nonlinear sigmoidal dose-response model with a variable slope in GraphPad Prism 8 software. The shifting of melting temperature (ΔTm) was calculated using Tm (compound)−Tm (DMSO).
For CD melting assay, MYCN oligonucleotides were prepared in KCl buffer (10 mM sodium phosphate, pH7.0, 5 mM KCl) at 5 μM concentration. To test the stabilization effect of the compounds, MYCN G4 DNA samples were mixed with/without the compound (final solution containing 5% DMSO) at designed concentration. Then a total of 300 μL solution was added in a cuvette and heated from 20 to 80° C. in a CD spectrometer with an interval of 1° C. To calculate the melting temperature (Tm), the peak of CD spectrum at 263 nm was tracked, and […] vs temperature was plotted and fitted using a nonlinear sigmoidal dose-response model with a variable slope in GraphPad Prism 8 software.

[3] = MYCN G4, Langmuir 1:1 model, read-out: SPR KD

| Kd (MYCN G4 DNA [1]; [3]) | Structure (SMILES) | positive binding in SPR (SNR>3) (MYCN G4 DNA [1]) | increase of Tm (ΔTm) of MYCN G4 (MYCN G4 DNA [2]) | Kd (MYCN G4 DNA [1]; MYCN hairpin G4, SPR titration, read-out: KD by SPR) | ΔTm of MYCN G4 (MYCN G4 DNA [2]; 10 mM sodium phosphate pH 7.0, 5 mM KCl, 5 μM DNA) | ΔTm of MYCN G4 at 40 μM (MYCN G4 DNA [2]; 40 μM MY-1, versus 20 μM) |
| --- | --- | --- | --- | --- | --- | --- |
| 1500 ± 300 nM | COc1ccc(-c2noc(-c3ccc(NCCCN4CCCCCC4)nn3)n2)cc1 [MY-8, N-(3-(azepan-1-yl)propyl)-6-(3-(4-methoxyphenyl)-1,2,4-oxadiazol-5-yl)pyridazin-3-amine] | – | – | – | – | – |
| – | COc1ccc(-c2noc(-c3ccc(NCCCNc4c5ccc(Cl)cc5nc5ccc(OC)cc45)nn3)n2)cc1 [B33, N^1-(6-chloro-2-methoxyacridin-9-yl)-N^3-(6-(3-(4-methoxyphenyl)-1,2,4-oxadiazol-5-yl)pyridazin-3-yl)propane-1,3-diamine] | – | – | 70 ± 13 nM | 6.4 °C | – |
| 3600 ± 2400 nM | COc1ccc(-c2noc(-c3ccc(NCCCN4CCCC4)nn3)n2)cc1 [MY-1, 6-(3-(4-methoxyphenyl)-1,2,4-oxadiazol-5-yl)-N-(3-(pyrrolidin-1-yl)propyl)pyridazin-3-amine] | hits | 3.7±0.5 °C | – | – | not significantly increased |

| Structure (SMILES) | Kd (MYCN G4 DNA [1]; [3]) | positive binding in SPR (SNR>3) (MYCN G4 DNA [1]) | increase of Tm (ΔTm) of MYCN G4 (MYCN G4 DNA [2]) | Kd (MYCN G4 DNA [1]; MYCN hairpin G4, SPR titration, read-out: KD by SPR) | ΔTm of MYCN G4 (MYCN G4 DNA [2]; 10 mM sodium phosphate pH 7.0, 5 mM KCl, 5 μM DNA) | ΔTm of MYCN G4 at 40 μM (MYCN G4 DNA [2]; 40 μM MY-1, versus 20 μM) |
| --- | --- | --- | --- | --- | --- | --- |
| CCCN1CCN(c2nnc(-n3cccc3CNCCCN3CCCCCC3)s2)CC1 [Compound 1] | 11700 ± 2600 nM | hits | 4.7±0.7 °C | – | – | – |
